Target: T1, CDK4/Cyclin D1 (Homo sapiens, UniProt P11802)
T1 construct: made in house; host or cells: SF21 insect cells (Spodoptera frugiperda), baculovirus co-infection, vector pVL1393
Assay: CDK Inhibition Assay (Scintillation Proximity Assay, GST-Retinoblastoma substrate)
Format: biochemical
Settings: in-vitro kinase assay, incorporation of [γ-33-P]-ATP into GST-Rb, 60 minutes at room temperature; read-out: CDK4 inhibitory activity IC50
Method: The compounds were tested in an in vitro kinase assay in 96 well format using Scintillation Proximity Assay (SPA—obtained from Amersham) for measuring incorporation of [γ-33-P]-Adenosine Triphosphate into a test substrate (GST-Retinoblastoma). In each well was placed the compound to be tested (diluted in DMSO and water to correct, concentrations) and in control wells either p 16 as an inhibitor control or DMSO as a positive control. Approximately 0.5 μl of CDK4/Cyclin D1 partially-purified enzyme (amount dependent on enzyme activity) diluted in 25 μl incubation buffer was added to each well then 20 μl of GST-Rb/ATP/ATP33 mixture (containing 0.54 μg GST-Rb and 0.2 μM ATP and 0.14 μCi [γ-33-P]-Adenosine Triphosphate), and the resulting mixture shaken gently, then incubated at room temperature for 60 minutes. To each well was then added 150 μL stop solution containing (0.8 mg/well of Protein A-PVT SPA bead (Amersham)), 20 pM/well of Anti-Glutathione Transferase, Rabbit IgG (obtained from Molecular Probes), 61 mM EDTA and 50 mM HEPES pH 7.5 containing 0.05% sodium azide. The plates were sealed with Topseal-S plate sealers, left for two hours then spun at 2500 rpm, 1124×g., for 5 minutes. The plates were read on a Topcount for 30 seconds per well. […]

T1 sequence (P11802 whole entry): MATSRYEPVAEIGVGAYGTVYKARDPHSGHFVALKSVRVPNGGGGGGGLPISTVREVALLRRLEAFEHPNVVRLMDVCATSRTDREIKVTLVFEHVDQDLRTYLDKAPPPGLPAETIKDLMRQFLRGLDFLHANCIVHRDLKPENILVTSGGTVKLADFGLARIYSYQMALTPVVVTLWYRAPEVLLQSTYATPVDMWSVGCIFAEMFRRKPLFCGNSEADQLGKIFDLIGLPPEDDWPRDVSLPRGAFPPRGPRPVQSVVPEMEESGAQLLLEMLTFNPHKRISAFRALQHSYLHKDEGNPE
T1 sequence (P24385 whole entry partner): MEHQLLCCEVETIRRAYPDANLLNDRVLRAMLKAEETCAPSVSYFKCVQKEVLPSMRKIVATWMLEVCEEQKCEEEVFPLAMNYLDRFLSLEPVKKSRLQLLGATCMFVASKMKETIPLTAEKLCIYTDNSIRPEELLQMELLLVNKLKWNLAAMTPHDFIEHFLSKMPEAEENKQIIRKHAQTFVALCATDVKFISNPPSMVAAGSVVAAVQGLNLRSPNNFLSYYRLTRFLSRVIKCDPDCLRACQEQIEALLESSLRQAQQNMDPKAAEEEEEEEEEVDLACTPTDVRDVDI

Row | IC50 [nM] | Compound
1 | 70 | Cc1ccc(Cl)c(N(CC#N)c2cc(Nc3ccc(OCC(O)CN(C)C)cc3)ncn2)c1 (centres unmarked) [Example 2, 4-{4-[3-(N,N-Dimethyl)amino-2-hydroxylropoxy]anilino}-6-(N-cyanomethyl-2-chloro-5-methylanilino)pyrimidine]
2 | 110 | Cc1ccc(N(CC#N)c2cc(Nc3ccc(OCC(O)CN(C)C)cc3)ncn2)c(Br)c1 (centres unmarked) [Example 1, 4-{4-[3-(N,N-Dimethyl)amino-2-hydroxyproroxy]anilino}-6-(N-cyanomethyl-2-bromo-4-methylanilino)pyrimidine]

Reference: patent US6632820B1, “Pyrimidine compounds” (AstraZeneca AB, priority 1998, dated 2003)
